Measurements taken from patent US20040048814A1, “Sustained release composition contraining clarithromycin” (priority 2000, published 2004).
Where two headings read alike, the source gives them in different places.

Legend:
[1] = In vitro dissolution test, paddle apparatus, pH 5.0 phosphate buffer; assay type: physicochemical; settings: pH 5.0, 100 rpm, 900 ml
From the text: The dissolution test is usually the most appropriate analytical tool to assess the quality of the oral formulations and especially of sustained release oral formulations.

[2] = cited from earlier work
[3] = cited from earlier work; remark: listed apart in the source

% of dissolved clarithromycin ([1]; after 5 minutes, amount of coating 12% of the weight of the core): about 40%
% of dissolved clarithromycin ([1]; after 5 minutes, amount of coating 14% of the weight of the core): about 20%
% of dissolved clarithromycin ([1]; after about 5 minutes, amount of coating 10% of the weight of the core): about 80%
Compound: CC[C@H]1OC(=O)[C@H](C)[C@@H](O[C@H]2C[C@@](C)(OC)[C@@H](O)[C@H](C)O2)[C@H](C)[C@@H](O[C@@H]2O[C@H](C)C[C@H](N(C)C)[C@H]2O)[C@](C)(OC)C[C@@H](C)C(=O)[C@H](C)[C@@H](O)[C@]1(C)O [clarithromycin, Clarithromycin]
water solubility ([2]; pH below 5): good and quite constant
solubility ([2]; pH greater than 5): decreases dramatically
solubility ([2]; pH=8): quasi nil
increase of bioavailability by food intake (mean) ([3]; food intake immediately before administration): 25%
time to achieve peak blood concentrations ([3]; oral administration): about 2 hours
availability after an oral dose ([3]; oral dose of 250 mg): ~55%
